# Positions count from the first letter of the chain named. Read-outs that look alike come from different tables or passages of the source.
# Key:
# [1] = biological target: T1, androgen receptor in MDA-MB453-MMTV clone 54-19 cells (Homo sapiens, UniProt P10275); assay: AR Antagonist Cell Assay (MMTV-luciferase reporter, DHT-induced); format: cell-based; settings: MDA-MB453-MMTV clone 54-19, 100 pM DHT, 17 hr; mean of multiple tests
# T1 sequence (P10275 1-920 Q868H): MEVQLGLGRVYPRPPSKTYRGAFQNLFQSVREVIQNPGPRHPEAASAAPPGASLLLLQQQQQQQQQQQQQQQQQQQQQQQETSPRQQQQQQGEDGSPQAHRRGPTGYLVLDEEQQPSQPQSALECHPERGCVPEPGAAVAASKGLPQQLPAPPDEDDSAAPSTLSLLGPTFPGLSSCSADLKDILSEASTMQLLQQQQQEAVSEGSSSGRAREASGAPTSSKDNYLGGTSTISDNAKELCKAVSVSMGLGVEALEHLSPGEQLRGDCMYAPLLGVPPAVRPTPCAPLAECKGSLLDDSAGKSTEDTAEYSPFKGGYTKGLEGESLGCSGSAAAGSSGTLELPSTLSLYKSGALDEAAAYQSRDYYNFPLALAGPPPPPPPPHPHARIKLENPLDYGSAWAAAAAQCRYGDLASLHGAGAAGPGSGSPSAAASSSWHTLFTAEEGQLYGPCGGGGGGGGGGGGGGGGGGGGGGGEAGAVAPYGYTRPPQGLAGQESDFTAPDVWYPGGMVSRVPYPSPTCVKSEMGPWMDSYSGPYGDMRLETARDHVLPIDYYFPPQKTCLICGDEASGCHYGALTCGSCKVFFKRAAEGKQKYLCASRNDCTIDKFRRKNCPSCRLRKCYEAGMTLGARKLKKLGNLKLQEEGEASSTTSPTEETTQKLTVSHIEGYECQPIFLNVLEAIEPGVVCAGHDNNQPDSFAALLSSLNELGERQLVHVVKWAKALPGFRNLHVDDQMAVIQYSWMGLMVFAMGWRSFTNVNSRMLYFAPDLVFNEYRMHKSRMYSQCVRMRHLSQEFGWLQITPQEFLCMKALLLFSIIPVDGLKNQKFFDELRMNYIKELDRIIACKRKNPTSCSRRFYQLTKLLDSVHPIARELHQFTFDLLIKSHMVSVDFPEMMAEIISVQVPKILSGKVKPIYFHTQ
# Procedure: The compounds ability to antagonize the effects of androgen on the androgen receptor were determined in a whole cell assay as described immediately below.
# Cell line: MDA-MB453-MMTV clone 54-19. This cell line is a stable transfected cell line with MDA-MB453 cell background (a human breast tumor cell line expressing androgen receptor). A MMTV minimal promoter containing ARE was first cloned in front of a firefly luciferase reporter gene. Then the cascade was cloned into transfection vector pUV120puro. Electroporation method was used for transfecting MDA-MB-453 cell. Puromycin resistant stable cell line was selected.
# Culture medium: DMEM (high glucose, Gibco cat #: 11960-044), 10% FBS, and 1% L-glutamine
# Plating medium: DMEM (phenol red free), 10% charcoal treated HyClone serum, 1% L-glutamine
# Assay medium: DMEM (phenol red free), 1% charcoal treated HyClone serum, 1% L-glutamine, and 1% penicillin/streptomycin
# 3× luciferase buffer: 2% beta-mercaptoethanol, 0.6% ATP, 0.0135% luciferine in cell lysis buffer
# Cells are maintained in culture medium, splitting cells when they reach 80-90% confluence. To test compounds, 10,000 cells/well are plated to opaque 96 cell culture plate in 100 ul/well plating medium, culture for overnight at 37° C. in cell culture incubator. Carefully remove plating medium, then add 80 ul/well of pre-warmed assay medium, add 10 ul/well testing compound (final concentration at) 1000 nM, 200 nM, 40 nM, 8 nM, 1.6 nM, and 0.32 nM), incubate at 37° C. for 30 minutes. Add 10 ul/well freshly prepared DHT (final concentration at 100 pM) to each well, incubate at 37° C. for 17 hr (overnight). Add 50 ul/well 3× luciferase buffer, incubate at room temperature for 5 minutes, then count on Luminometer. The fold induction over background by 100 pM DHT in the absence of testing compounds is standardized as 100% and experimental result is expressed as percentage of inhibition by testing compounds.
# The results are reported as the mean of multiple tests as described below (the numbers of tests are indicated in the footnote). ND denotes that the compound was not tested.
# [2] = biological target: T2, hAR (human androgen receptor, baculovirus/Sf9 generated extracts) (Homo sapiens, UniProt P10275); assay: AR Binding Assay (competitive binding with 3H-DHT tracer); settings: 1 nM 3H-DHT, one hour at 4° C., mean of multiple tests
# T2 construct: made in house; host or cells: baculovirus/Sf9 insect cells (crude extract)
# T2 sequence (P10275 1-920): T1 sequence (P10275 1-920 Q868H) with H868Q
# Procedure: The compounds of Formula I have affinity for the androgen receptor. […] The description below describes how the assay was carried out.
# Competitive binding analysis was performed on baculovirus/Sf9 generated hAR extracts in the presence or absence of different concentrations of test agent and a fixed concentration of ^3H-dihydrotestosterone (^3H-DHT) as tracer. This binding assay method is a modification of a protocol previously described (Liao S., et. al., J. Steroid Biochem., 20:11-17, 1984). Briefly, progressively decreasing concentrations of compounds are incubated in the presence of hAR extract (Chang et al., P.N.A.S., Vol. 89, pp. 5546-5950, 1992), hydroxylapatite, and 1 nM ^3H-DHT for one hour at 4° C. Subsequently, the binding reactions are washed three times to completely remove excess unbound ^3H-DHT. hAR bound ^3H-DHT levels are determined in the presence of compounds (i.e. competitive binding) and compared to levels bound when no competitor is present (i.e. maximum binding). Compound binding affinity to the hAR is expressed as the concentration of compound at which one half of the maximum binding is inhibited. Table II below provides the results that were obtained for selected compounds (reported data is the mean of multiple tests as shown below).
# [3] = hAR extract, read-out: AR Binding IC50
SMILES,IC50 [1] [nM],"IC50 [2, 3] [nM]","IC50 ([2]; AR Binding IC50, hAR extract) [nM]"
"CCOc1ccccc1COc1ccc(C#N)c(C(F)(F)F)c1 [Example 55, 4-(2-Ethoxy-benzyloxy)-2-trifluoromethyl-benzonitrile]",> 1000,125,
"CC(Oc1ccc(C#N)cc1Cl)c1ccccc1 (stereo not shown) [Example 57, 3-Chloro-4-(1-phenyl-ethoxy)-benzonitrile]",86,,240
"CC(Oc1ccc(C#N)c(C(F)(F)F)c1)c1cccc(C#N)c1 (single isomer, unassigned) [Example 78, 4-[1-(3-Cyano-phenyl)-ethoxy]-2-trifluoromethyl-benzonitrile]",47,,37
"C#CC(Oc1ccc(C#N)c(C(F)(F)F)c1)c1ccccc1 (stereo not shown) [Example 56, 4-(1-Phenyl-prop-2-ynyloxy)-2-trifluoromethyl-benzonitrile]",20,,74
"N#Cc1ccc(OC(Cc2ccccc2)c2ccccn2)cc1C(F)(F)F (stereo not shown) [Example 82, 4-(2-Phenyl-1-pyridin-2-yl-ethoxy)-2-trifluoromethyl-benzonitrile]",> 1000,238,
"CCOc1ccccc1COc1ccc(C#N)c(Cl)c1 [Example 68, 2-Chloro-4-(2-ethoxy-benzyloxy)-benzonitrile]",> 1000,213,
"CC(C)CC(Oc1ccc(C#N)c(C(F)(F)F)c1)c1ccccn1 (stereo not shown) [Example 83, 4-(3-Methyl-1-pyridin-2-yl-butoxy)-2-trifluoromethyl-benzonitrile]",> 1000,119,
"COCCOCOc1cncc(C(CC(C)C)Oc2ccc(C#N)c(C(F)(F)F)c2)c1 (stereo not shown) [Example 93, 4-{1-[5-(2-Methoxy-ethoxymethoxy)-pyridin-3-yl]-3-methyl-butoxy}-2-trifluoromethyl-benzonitrile]",202,,98
"CC(Oc1ccc(C#N)c(Cl)c1)c1ccccc1 (stereo not shown) [Example 71, 2-Chloro-4-(1-phenyl-ethoxy)-benzonitrile]",8,,13
"CC(Oc1ccc(C#N)c(C(F)(F)F)c1)c1ccccc1Cl (stereo not shown) [Example 22, 4-[1-(2-Chloro-phenyl)-ethoxy]-2-trifluoromethyl-benzonitrile]",102,108,
"CC(Oc1ccc(C#N)c(C(F)(F)F)c1)c1cccc(C#N)c1 (stereo not shown) [Example 30, 4-[1-(3-Cyano-phenyl)-ethoxy]-2-trifluoromethyl-benzonitrile]",7,,22
"CC(Oc1ccc(C#N)c(C(F)(F)F)c1)c1ccccc1 (stereo not shown) [Example 53, 4-(1-Phenyl-ethoxy)-2-trifluoromethyl-benzonitrile]",55,,8
"CC(Oc1ccc(C#N)c(C(F)(F)F)c1)c1cccc(Cl)c1 (stereo not shown) [Example 26, 4-[1-(3-Chloro-phenyl)-ethoxy]-2-trifluoromethyl-benzonitrile]",56,,122
"CCC(C)(Oc1ccc(C#N)c(Cl)c1)c1ccccc1 (stereo not shown) [Example 58, 2-Chloro-4-(1-methyl-1-phenyl-propoxy)-benzonitrile]",> 1000,162,
"N#Cc1ccc(CCOc2ccc(C#N)c(C(F)(F)F)c2)cc1 [Example 75, 4-[2-(4-Cyano-phenyl)-ethoxy]-2-trifluoromethyl-benzonitrile]",55,,343
CCCC(Oc1ccc(C#N)c(C(F)(F)F)c1)c1cncc(OCOCCOC)c1 (stereo not shown) [Example 92],> 934,,74
"N#Cc1ccc(OC(Cc2ccccc2)c2cccnc2)cc1C(F)(F)F (stereo not shown) [Example 91, 4-(2-Phenyl-1-pyridin-3-yl-ethoxy)-2-trifluoromethyl-benzonitrile]",342,116,
"N#Cc1ccc(OCc2ccccc2)cc1C(F)(F)F [Example 50, 4-Benzyloxy-2-trifluoromethyl-benzonitrile]",508,174,
"N#Cc1ccc(OCc2ccccc2)cc1Cl [Example 59, 4-Benzyloxy-2-chloro-benzonitrile]",108,38,
"CCC(Oc1ccc(C#N)c(C(F)(F)F)c1)c1cncc(O)c1 (stereo not shown) [Example 94, 4-[1-(5-Hydroxy-pyridin-3-yl)-propoxy]-2-trifluoromethyl-benzonitrile]",202,,75
"Cc1ccccc1COc1ccc(C#N)c(Cl)c1 [Example 65, 2-Chloro-4-(2-methyl-benzyloxy)-benzonitrile]",> 1000,129,
"COc1ccccc1C(C)Oc1ccc(C#N)c(C(F)(F)F)c1 (stereo not shown) [Example 5, 4-[1-(2-Methoxy-phenyl)-ethoxy]-2-t-trifluoromethyl-benzonitrile]",> 1000,312,
"CC(Oc1ccc(C#N)c(C(F)(F)F)c1)c1cccc(O)c1 (racemic) [Example 8, 4-[1-(3-Hydroxyphenyl)ethoxy]-2-(trifluoromethyl)benzonitrile]",529,,21

# Source: US20090170886A1 (Pfizer Inc, priority 2005, published 2009)
